In US10407712B2, “Methods, compositions and kits for high throughput kinase activity screening using mass spectrometry and stable isotopes” (President and Fellows of Harvard College, priority 2008, dated 2019):

Assays:
HeLa cell lysates = assay: KAYAK in vitro kinase assay, lysates of asynchronous, G1/S- or G2/M-arrested HeLa cells; format: biochemical, human; conditions: G2/M phase compared to asynchronously growing HeLa cells
Procedure: For cell cycle examples, HeLa cells were synchronized by double thymidine block for G1/S-arrest and by 0.2 μg/ml nocodazole for G2/M-arrest as described (Dephoure et al. 2008 Proc Natl Acad Sci USA 105: 10762-10767). Synchronization was confirmed by flow cytometry.
(§1) For cell lysis, the media were removed, and cells were washed with ice-cold phosphate-buffered saline (PBS) and lysed with ice-cold lysis buffer (10 mM K2HPO4 pH 7.5, 1 mM EDTA, 10 mM MgCl2, 50 mM β-glycerophosphate, 5 mM EGTA, 0.5% Nonidet P-40, 0.1% Brij 35, 0.1% deoxycholic acid, 1mM sodium orthovanadate, 1mM phenylmethyl-sulfonyl fluoride, 5 μg/ml leupeptin and 5 μg/ml pepstatin A). Lysates were centrifuged at 10,000 rpm for 10 min to remove cell debris, and clear supernatant was used for immunoblotting and in vitro kinase assays. Protein concentration was determined by Bradford assay (Biorad, Hercules, Calif.).
(§2) Peptides were synthesized, purified and quantified as described in Yu et al. 2009 Proc Natl Acad Sci USA 106: 11606-11611, hereby incorporated by reference herein in its entirety. Each substrate peptide (250 pmol) was mixed to a final concentration of 5 μM in the 50 μL reaction mixture. Alternatively, reactions were performed using 6 μg cell lysate aliquotes mixed to a final volume of 20 μl. Cell lysate or other kinase source was added to the substrate mixture in 25 mM Tris-Cl, pH 7.5, containing 5 mM ATP, 7.5 mM MgCl2, 0.2 mM EGTA, 7.5 mM β-glycerophosphate, 0.1 mM Na3VO4, and 0.1 mM DTT. The reaction was incubated at 25° C. for 60 min and then terminated by the addition of 100 μl of 1% trifluoroacetic acid (TFA) containing a known amount of an internal standard (typically 20 pmol). Alternatively, the reaction was incubated at 20° C. for 45 min before termination with TFA.
(§3) Forty-five individual in vitro kinase reaction mixtures were combined and desalted by using Sep-Pak C18 cartridge (Waters, Milford, Mass.). Phosphopeptides were enriched by immobilized metal ion chromatography (IMAC) with 20 μl of beads (Phos-Select iron affinity gel; Sigma, St. Louis, Mo.) and subsequently desalted by using Empore C18 solid phase extraction disks (3M, St. Paul, Minn.) as described previously.
(§4) Quantitation of the target peptide-internal standard ratios was performed by first constructing the extracted ion chromatogram for the most abundant charge state for each peptide using a ±10 ppm window. Chromatograms were integrated using Qual/Quan browser (Xcalibur 2.0.5, Thermo Fisher, San Jose, Calif.). Since the phosphorylated peptides generated from the in vitro kinase reactions were chemically identical to the internal standards, they were assumed to have the same ionization efficiency. Therefore, the amount of each phosphorylated peptide was calculated by direct ratio to the internal standard level.
(§5) To test substrate suitability in a multiplexed assay, the phosphorylation activities were measured using […] of each substrate peptide, 6 μg lysate, and 5 mM ATP in a plate format. Reactions proceeded for 60 minutes followed by acidification and the addition of isotope-labeled reference peptides. After pooling 45 samples, phosphopeptide enrichment was followed by liquid-chromatography (LC) separation and on-line peptide detection by high-resolution mass spectrometry.
In order to examine target peptides with cell-cycle-dependent phosphorylation, kinase activities in asynchronously growing HeLa cells were profiled and the profiles were compared with those of cells synchronized in G1/S and G2/M phase using a double-thymidine block and nocodazole arrest, respectively (FIG. 3B).

recombinant RSK1 = target: T1, recombinant RSK1 (Homo sapiens, UniProt Q15418); assay: In vitro peptide phosphorylation by purified RSK; format: biochemical
T1 construct: 90 kDa ribosomal S6 kinases 1 (RSK1, 1-735); purchased Cell Signaling Technology (Danvers, Mass.)
Source text: (§6) Reaction mixture was supplemented with 0.1% BSA. Other conditions were the same as in FIG. 10A.
(§7) Purified human active kinases of Akt1 (full length), extracellular signal-regulated kinase 1 (ERK1, 1-379), mitogen-activated protein kinase kinase 1 (MEK1, 1-393), 90 kDa ribosomal S6 kinases 1 (RSK1, 1-735), cAMP-dependent protein kinase (PKA) catalytic subunit-α (PKA Cα, 1-351), protein kinase Cα (PKCα, full length), epidermal growth factor (EGF) receptor (EGFR, 672-1210), platelet-derived growth factor (PDGF) receptor α (PDGFRα, 550-1090), vascular endothelial growth factor (VEGF) receptor 1 (VEGFR1 784-1338), Src (full length), casein kinase 2 (CK2, full length), Aurora A (1-403), AMP-activated protein kinase α1β1γ1 (AMPK α1β1γ1, full length), glycogen synthase kinase-3α (GSK-3α, 1-483) and MAP/microtubule affinity-regulating kinase 1 (MARK 1, full length) were obtained from Cell Signaling Technology (Danvers, Mass.). Cdc2/cyclin B1 (full length) and insulin-like growth factor (IGF)-I receptor (IGFIR, 959-1367) were obtained from Upstate (Temecula, Calif.).
as §2, with “Each substrate peptide (250 pmol) was mixed to a final concentration of 5 μM in the 50 μL reaction mixture.” left out
(§8) It was observed that basal phosphorylation of these peptides was not affected by knockdown and likely was the result of remaining RSK isoforms or other basophilic kinases (FIG. 5C).

activated, purified Akt = target: T2, activated, purified Akt (Homo sapiens, UniProt P31749); assay: In vitro peptide phosphorylation by purified Akt; format: biochemical; conditions: control, 2 ng purified kinase
T2 construct: Purified human active kinases of Akt1 (full length); purchased Cell Signaling Technology (Danvers, Mass.)
Source text: as §6, §7
Peptides were synthesized, purified and quantified as described in Yu et al. 2009 Proc Natl Acad Sci USA 106: 11606-11611, hereby incorporated by reference herein in its entirety. […] Alternatively, reactions were performed using 6 μg cell lysate aliquotes mixed to a final volume of 20 μl. […]

HEK293 cell lysates [1] = assay: KAYAK in vitro kinase assay, individual reactions, lysates of starved, insulin- or EGF-stimulated HEK293 cells; format: biochemical, human; conditions: for E: changed phosphorylation in EGF stimulated condition: EGF-stimulated compared to starved HEK293 cells; for increase in phosphorylation after EGF: EGF-stimulated vs serum-starved HEK293 lysate; for increase in phosphorylation after insulin: insulin-stimulated vs serum-starved HEK293 lysate
Procedure: (§9) For stimulation of HEK293 cells or HeLa lines, cells were treated with insulin (100 nM; 10-30 min) EGF (50 ng/ml; 10 min) or phorbol 12-myristate 13-acetate (PMA; 50 or 100 ng/ml; 10 -30 min) at 37° C. for the indicated times after overnight serum-starvation.
as §1, §2, §3, §4, §5
The ability of the peptides to report specific changes in kinase activation after pathway stimulation was examined herein. Lysates from HEK293 cells were collected after insulin or EGF treatment and were compared to their activities in the serum-starved state using the KAYAK approach. Western blot analysis of lysates from cells in which the PI3K and MAPK pathways were activated, as indicated by elevated phospho-Akt and phospho-ERK1/2 levels, respectively, is shown in FIG. 1D. […]

HEK293 cells [2] = assay: Single-reaction KAYAK of HEK293 cells treated with kinase inhibitors followed by insulin stimulation; format: cell-based, human; conditions: HEK293, inhibitor 30 min then 100 nM insulin 30 min
HEK293 cells [3] = assay: KAYAK of lysates from HEK293 cells pretreated with inhibitors before mitogen stimulation; format: cell-based, human
Procedure: For drug inhibition studies, cells were pretreated with U0126 (5 μM) or Wortmannin (100 nM) for 1 hr prior to hormone stimulation.
as §2
The KAYAK method was applied to measure the effect of pharmacological inhibitors or siRNA-mediated knockdown of kinase pathways after mitogen stimulation (see FIGS. 5A-5D and 8 for data obtained by immunoblotting analysis of cell lysates). […] EGF stimulated cell lysates strongly phosphorylated peptides B6, C6, C11 and G5 and these effects were blocked by pretreating cells with the MEK-specific inhibitor U0126.
In contrast, phosphorylation levels of these peptides were not changed as a result of insulin stimulation. […] PMA activates the MAPK pathway by activating the upstream kinase, PKC (Blenis et al. 1993 Proc Natl Acad Sci USA 90: 5889-5892). Because the observed increase in phosphorylation was reversed by prior treatment of cells with U0126, it was concluded that these peptides were not PKC substrates. Rather they were likely phosphorylated by kinases downstream of the MAPK pathway.
as §8

HEK293 cell lysates [4] = assay: Single-reaction 90-substrate KAYAK assay, HEK293 lysates with or without insulin; format: biochemical, human; conditions: for phosphorylation in response to insulin stimulation: 5 μM each peptide, HEK293 lysate
Procedure: as §9
Alternatively, cells were washed with PBS once and lysed with ice-cold lysis buffer, 10 mM potassium phosphate, pH 7.0, containing 0.5% NP-40, 0.1% Brij 35, 0.1% deoxycholic acid, 1 mM ethylenediaminetetraacetic acid (EDTA), 5 mM ethylene glycol tetraacetic acid (EGTA), 10 mM MgCl2, 50 mM β-glycerophosphate, 1 mM Na3VO4, 2 mM dithiothreitol (DTT) and protease inhibitor cocktail (Complete, Roche Applied Science, Indianapolis, Ind.). Homogenates were centrifuged at 10,000 rpm for 15 min at 4° C., and the supernatant was used as lysate. Protein concentration was quantified by a modified Bradford assay (Pierce).
as §2
Internal standard heavy peptides (5 pmol each) were added as a mixture to the terminated reactions followed by desalting with a solid phase extraction cartridge (SepPak tC18 (50 mg), Waters, Milford, Mass.). Phosphopeptides were enriched as described (Villen et al. 2008 Nat Protoc 3: 1630-1638). […]
For KAYAK analyses, phosphopeptides were dissolved in 5% FA and injected onto a 125-μm-internal diameter fused silica column packed with Magic C18 AQ material (Michrom Bioresources, Auburn, Calif.). Peptides were separated using a two-solvent system: solvent A (0.125% FA and 3% ACN in H2O), solvent B (0.125% FA in ACN) over 32 min gradient, and eluting peptides were directly analyzed using an LTQ-Orbitrap mass spectrometer (Thermo Scientific, San Jose, Calif.) equipped with the electron transfer dissociation option. […]

T1 sequence (Q15418 whole entry): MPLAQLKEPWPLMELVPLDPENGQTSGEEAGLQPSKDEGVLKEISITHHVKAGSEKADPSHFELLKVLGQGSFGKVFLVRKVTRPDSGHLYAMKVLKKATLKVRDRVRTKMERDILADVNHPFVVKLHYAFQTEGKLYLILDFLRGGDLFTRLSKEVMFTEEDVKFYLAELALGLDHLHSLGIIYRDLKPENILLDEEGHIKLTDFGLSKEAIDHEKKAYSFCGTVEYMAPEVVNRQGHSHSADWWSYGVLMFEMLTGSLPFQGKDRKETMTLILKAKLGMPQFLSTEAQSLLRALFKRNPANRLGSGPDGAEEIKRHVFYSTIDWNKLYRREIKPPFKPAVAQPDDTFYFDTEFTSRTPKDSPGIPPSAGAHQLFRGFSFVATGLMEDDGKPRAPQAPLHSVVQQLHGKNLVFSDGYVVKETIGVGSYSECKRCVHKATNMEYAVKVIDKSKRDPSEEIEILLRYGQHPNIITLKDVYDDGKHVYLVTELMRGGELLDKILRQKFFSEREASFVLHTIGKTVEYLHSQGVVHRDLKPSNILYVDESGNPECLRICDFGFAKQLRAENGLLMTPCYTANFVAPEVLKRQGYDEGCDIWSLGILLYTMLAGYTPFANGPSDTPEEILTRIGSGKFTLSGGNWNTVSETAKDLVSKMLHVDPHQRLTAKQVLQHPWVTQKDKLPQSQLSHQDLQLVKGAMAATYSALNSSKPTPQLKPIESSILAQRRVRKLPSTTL
T2 sequence (P31749 whole entry): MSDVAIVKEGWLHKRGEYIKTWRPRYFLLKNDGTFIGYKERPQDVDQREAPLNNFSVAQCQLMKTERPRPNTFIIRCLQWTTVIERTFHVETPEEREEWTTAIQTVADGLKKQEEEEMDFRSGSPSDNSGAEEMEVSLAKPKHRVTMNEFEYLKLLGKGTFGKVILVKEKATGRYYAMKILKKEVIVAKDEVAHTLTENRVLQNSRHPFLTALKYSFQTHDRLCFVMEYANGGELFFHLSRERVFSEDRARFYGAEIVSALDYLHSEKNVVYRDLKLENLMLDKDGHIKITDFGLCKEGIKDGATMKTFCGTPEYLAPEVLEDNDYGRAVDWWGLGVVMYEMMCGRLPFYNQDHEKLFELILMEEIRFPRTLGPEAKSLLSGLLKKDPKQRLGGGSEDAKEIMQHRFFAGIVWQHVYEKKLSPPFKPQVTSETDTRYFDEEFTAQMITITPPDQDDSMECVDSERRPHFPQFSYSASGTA

Molecule	G2/M: changed phosphorylation (HeLa cell lysates)	E: changed phosphorylation in EGF stimulated condition (HEK293 cell lysates [1])	effect on insulin-stimulated phosphorylation of peptide E11 (HEK293 cells [2])	phosphorylation in response to insulin stimulation (HEK293 cell lysates [4])	increase in phosphorylation after EGF (HEK293 cell lysates [1]) [fold]	increase in phosphorylation after insulin (HEK293 cell lysates [1]) [fold]	further results
TKRSGSVYEPPFR (The sequence was designed and synthesized) [C6]	− (A change of more +2 fold and −2 fold is indicated by “+” and “−”, respectively.)	+ (A change of more +2 fold and −2 fold is indicated by “+” and “−”, respectively.)	–	–	–	–	phosphorylation by recombinant RSK1 in vitro (recombinant RSK1): robustly phosphorylate; phosphorylation by Akt (activated, purified Akt): not significantly phosphorylated
N#CC(=C(/N)Sc1ccccc1N)/C(C#N)=C(\N)Sc1ccccc1N [U0126]	–	–	blocked	–	–	–	effect on EGF-stimulated phosphorylation of peptides B6, C6, C11 and G5 (HEK293 cells [3]; 5 μM, 1 hr pretreatment, HEK293): blocked; RSK-equivalent activity of lysate, peptide C6 as substrate (HEK293 cells [3]; cells pretreated with U0126 then stimulated with EGF, EGF alone approximately 0.6 ng per μg): 0.2 ng RSK/μg lysate; effect on PMA-induced increase in phosphorylation of RSK peptides (HEK293 cells [3]; prior treatment of cells, HEK293): reversed
C[S+]([O-])c1ccc(-c2nc(-c3ccncc3)c(-c3ccc(F)cc3)[nH]2)cc1 (stereo not drawn) [SB203580]	–	–	paradoxical upregulation	–	–	–	–
O=c1[nH]c2ccccc2n1C1CCN(Cc2ccc(-c3nc4cc5[nH]cnc5cc4nc3-c3ccccc3)cc2)CC1 [Akt inhibitor VIII]	–	–	–	–	–	–	effect on phosphorylation rate of the A3 peptide (HEK293 cells [2]): decreased
RPRAATFPFR (The sequence was designed and synthesized) [A3]	–	+ (A change of more +2 fold and −2 fold is indicated by “+” and “−”, respectively.)	–	increased phosphorylation	2.9	4.6	I: changed phosphorylation in insulin stimulated condition (HEK293 cell lysates [1]; insulin-stimulated compared to starved HEK293 cells): ++ (A change of more than +4 and −4 fold is indicated by “++” and “−−”, respectively.)
RKRLISSVEDPFR (The sequence was designed and synthesized) [E11]	− (A change of more +2 fold and −2 fold is indicated by “+” and “−”, respectively.)	+ (A change of more +2 fold and −2 fold is indicated by “+” and “−”, respectively.)	–	increased phosphorylation	2.3	1.7	increase of phosphorylation rate with insulin (HEK293 cell lysates [4]; HEK293): more than 2 fold
